# How the values were obtained:
# [1] = biological target: Dual specificity mitogen-activated protein kinase kinase 3 (Homo sapiens) (UniProt P46734)
# [2] = biological target: Macrophage colony-stimulating factor 1 receptor (Homo sapiens) (UniProt P07333)
# [3] = biological target: Alpha-2C adrenergic receptor (Homo sapiens) (UniProt P18825); settings: Compound concentration 10.0 uM
# [4] = biological target: Casein kinase II subunit alpha (Homo sapiens) (UniProt P68400)
# [5] = system: Epidermal growth factor receptor (Homo sapiens), P00533 [UNDEFINED MUTATION]
# [6] = biological target: Tyrosine-protein kinase JAK1 (Homo sapiens) (UniProt P23458)
# [7] = biological target: T1, Serine/threonine-protein kinase Sgk1 (Homo sapiens) (UniProt O00141)
# T1 sequence (whole entry): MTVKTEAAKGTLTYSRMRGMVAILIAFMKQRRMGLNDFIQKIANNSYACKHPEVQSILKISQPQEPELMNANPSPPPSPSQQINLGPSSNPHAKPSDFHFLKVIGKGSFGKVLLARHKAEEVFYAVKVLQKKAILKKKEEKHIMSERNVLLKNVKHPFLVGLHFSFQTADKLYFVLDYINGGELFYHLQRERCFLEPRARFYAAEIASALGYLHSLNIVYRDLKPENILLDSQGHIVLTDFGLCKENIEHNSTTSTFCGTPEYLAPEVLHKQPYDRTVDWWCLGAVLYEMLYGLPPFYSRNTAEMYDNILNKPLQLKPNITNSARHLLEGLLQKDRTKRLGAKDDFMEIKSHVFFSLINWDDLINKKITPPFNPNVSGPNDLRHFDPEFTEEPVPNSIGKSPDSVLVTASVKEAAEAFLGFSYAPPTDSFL
# [8] = biological target: Ephrin type-A receptor 3 (Homo sapiens) (UniProt P29320)
# [9] = system: ALK tyrosine kinase receptor (Homo sapiens), Q9UM73 [C1156Y]
# [10] = biological target: Serine/threonine-protein kinase 32C (Homo sapiens) (UniProt Q86UX6)
# [11] = biological target: Beta-1 adrenergic receptor (Homo sapiens) (UniProt P08588); settings: Compound concentration 10.0 uM
# [12] = system: Receptor-type tyrosine-protein kinase FLT3 (Homo sapiens), P36888 [UNDEFINED MUTATION]
# [13] = biological target: Serine/threonine-protein kinase 10 (Homo sapiens) (UniProt O94804)
# [14] = biological target: Tyrosine-protein kinase Fer (Homo sapiens) (UniProt P16591)
# [15] = biological target: Cyclin-dependent kinase 2 (Homo sapiens) (UniProt P24941)
# [16] = biological target: Serine/threonine-protein kinase Nek3 (Homo sapiens) (UniProt P51956)
# [17] = system: Phosphatidylinositol 4,5-bisphosphate 3-kinase catalytic subunit alpha isoform (Homo sapiens), P42336 [E545K]
# [18] = biological target: cGMP-dependent protein kinase 2 (Homo sapiens) (UniProt Q13237)
# [19] = system: Mast/stem cell growth factor receptor Kit (Homo sapiens), P10721 [A829P]
# [20] = biological target: Mast/stem cell growth factor receptor Kit (Homo sapiens) (UniProt P10721)
# [21] = biological target: Rhodopsin kinase GRK7 (Homo sapiens) (UniProt Q8WTQ7)
# [22] = biological target: MAP kinase-interacting serine/threonine-protein kinase 1 (Homo sapiens) (UniProt Q9BUB5)
# [23] = biological target: Mitogen-activated protein kinase kinase kinase 10 (Homo sapiens) (UniProt Q02779)
# [24] = biological target: Serine/threonine-protein kinase NLK (Homo sapiens) (UniProt Q9UBE8)
# [25] = biological target: Ribosomal protein S6 kinase alpha-6 (Homo sapiens) (UniProt Q9UK32)
# [26] = system: Mast/stem cell growth factor receptor Kit (Homo sapiens), P10721 [V559D]
# [27] = biological target: Protein kinase C eta type (Homo sapiens) (UniProt P24723)
# [28] = biological target: Serine/threonine-protein kinase PLK4 (Homo sapiens) (UniProt O00444)
# [29] = biological target: Dual specificity protein kinase CLK1 (Homo sapiens, UniProt P49759)
# [30] = biological target: Serine/threonine-protein kinase D2 (Homo sapiens) (UniProt Q9BZL6)
# [31] = biological target: Serine/threonine-protein kinase 16 (Homo sapiens) (UniProt O75716)
# [32] = biological target: Mitogen-activated protein kinase kinase kinase 19 (Homo sapiens) (UniProt Q56UN5)
# [33] = biological target: GABA-A receptor; anion channel (Rattus norvegicus) (UniProt O09028+P15431+P18506+P18508+P19969+P20236+P23574+P23576+P28471+P28473+P30191+P62813+P63079+P63138+Q91ZM7+Q9ES14); settings: Compound concentration 10.0 uM
# [34] = biological target: Ribosomal protein S6 kinase alpha-2 (Homo sapiens) (UniProt Q15349)
# [35] = biological target: Dual specificity tyrosine-phosphorylation-regulated kinase 1B (Homo sapiens) (UniProt Q9Y463)
# [36] = biological target: Serine/threonine-protein kinase DCLK1 (Homo sapiens) (UniProt O15075)
# [37] = system: Tyrosine-protein kinase ABL1 (Homo sapiens), P00519 [T315I]
# [38] = biological target: Casein kinase II subunit alpha' (Homo sapiens) (UniProt P19784)
# [39] = Compound concentration 100.0 nM
# [40] = Compound concentration 1000.0 nM
# Beta-1 adrenergic receptor (Homo sapiens), sequence (P08588 whole entry, looked up): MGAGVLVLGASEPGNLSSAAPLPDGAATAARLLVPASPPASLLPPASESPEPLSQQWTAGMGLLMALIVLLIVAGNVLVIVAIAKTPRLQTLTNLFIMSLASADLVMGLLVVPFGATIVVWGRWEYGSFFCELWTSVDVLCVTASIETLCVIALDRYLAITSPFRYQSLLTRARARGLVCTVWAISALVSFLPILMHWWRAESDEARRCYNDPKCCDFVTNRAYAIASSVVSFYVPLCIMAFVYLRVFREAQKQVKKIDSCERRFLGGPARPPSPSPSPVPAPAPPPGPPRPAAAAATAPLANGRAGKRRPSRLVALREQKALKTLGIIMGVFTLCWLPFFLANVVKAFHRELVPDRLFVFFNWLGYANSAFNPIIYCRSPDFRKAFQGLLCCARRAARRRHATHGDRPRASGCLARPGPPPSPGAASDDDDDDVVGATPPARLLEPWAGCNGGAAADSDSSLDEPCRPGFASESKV
# Tyrosine-protein kinase JAK1 (Homo sapiens), sequence (P23458 whole entry): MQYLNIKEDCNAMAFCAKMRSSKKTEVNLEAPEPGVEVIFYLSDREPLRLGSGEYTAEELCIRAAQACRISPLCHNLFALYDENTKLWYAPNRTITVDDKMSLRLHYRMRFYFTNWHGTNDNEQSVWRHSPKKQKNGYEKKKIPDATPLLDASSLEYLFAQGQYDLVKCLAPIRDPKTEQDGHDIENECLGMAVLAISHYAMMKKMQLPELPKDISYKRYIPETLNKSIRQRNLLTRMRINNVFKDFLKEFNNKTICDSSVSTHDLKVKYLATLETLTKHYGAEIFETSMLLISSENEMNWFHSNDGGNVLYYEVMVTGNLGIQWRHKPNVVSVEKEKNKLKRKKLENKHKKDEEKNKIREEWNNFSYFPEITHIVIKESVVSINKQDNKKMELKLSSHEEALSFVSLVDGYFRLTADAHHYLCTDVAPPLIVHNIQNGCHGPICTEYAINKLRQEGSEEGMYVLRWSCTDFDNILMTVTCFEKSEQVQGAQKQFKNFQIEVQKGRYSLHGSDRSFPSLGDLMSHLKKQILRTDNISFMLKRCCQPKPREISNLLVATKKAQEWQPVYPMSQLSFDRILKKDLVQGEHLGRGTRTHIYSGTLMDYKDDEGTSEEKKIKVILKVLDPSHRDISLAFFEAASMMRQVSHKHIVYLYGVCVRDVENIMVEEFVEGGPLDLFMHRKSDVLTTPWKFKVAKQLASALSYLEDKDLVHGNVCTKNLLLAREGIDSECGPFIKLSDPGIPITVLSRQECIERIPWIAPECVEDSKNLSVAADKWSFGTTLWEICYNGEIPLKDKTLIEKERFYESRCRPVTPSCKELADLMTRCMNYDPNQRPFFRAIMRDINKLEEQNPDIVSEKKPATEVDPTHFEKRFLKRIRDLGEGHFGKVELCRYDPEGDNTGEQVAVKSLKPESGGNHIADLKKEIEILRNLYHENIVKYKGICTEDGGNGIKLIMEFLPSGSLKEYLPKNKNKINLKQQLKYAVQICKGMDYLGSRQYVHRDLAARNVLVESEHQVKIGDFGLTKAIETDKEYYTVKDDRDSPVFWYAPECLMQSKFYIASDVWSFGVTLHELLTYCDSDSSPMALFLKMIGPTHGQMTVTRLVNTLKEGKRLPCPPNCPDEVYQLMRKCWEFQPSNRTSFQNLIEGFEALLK
# Ephrin type-A receptor 3 (Homo sapiens), sequence (P29320 whole entry): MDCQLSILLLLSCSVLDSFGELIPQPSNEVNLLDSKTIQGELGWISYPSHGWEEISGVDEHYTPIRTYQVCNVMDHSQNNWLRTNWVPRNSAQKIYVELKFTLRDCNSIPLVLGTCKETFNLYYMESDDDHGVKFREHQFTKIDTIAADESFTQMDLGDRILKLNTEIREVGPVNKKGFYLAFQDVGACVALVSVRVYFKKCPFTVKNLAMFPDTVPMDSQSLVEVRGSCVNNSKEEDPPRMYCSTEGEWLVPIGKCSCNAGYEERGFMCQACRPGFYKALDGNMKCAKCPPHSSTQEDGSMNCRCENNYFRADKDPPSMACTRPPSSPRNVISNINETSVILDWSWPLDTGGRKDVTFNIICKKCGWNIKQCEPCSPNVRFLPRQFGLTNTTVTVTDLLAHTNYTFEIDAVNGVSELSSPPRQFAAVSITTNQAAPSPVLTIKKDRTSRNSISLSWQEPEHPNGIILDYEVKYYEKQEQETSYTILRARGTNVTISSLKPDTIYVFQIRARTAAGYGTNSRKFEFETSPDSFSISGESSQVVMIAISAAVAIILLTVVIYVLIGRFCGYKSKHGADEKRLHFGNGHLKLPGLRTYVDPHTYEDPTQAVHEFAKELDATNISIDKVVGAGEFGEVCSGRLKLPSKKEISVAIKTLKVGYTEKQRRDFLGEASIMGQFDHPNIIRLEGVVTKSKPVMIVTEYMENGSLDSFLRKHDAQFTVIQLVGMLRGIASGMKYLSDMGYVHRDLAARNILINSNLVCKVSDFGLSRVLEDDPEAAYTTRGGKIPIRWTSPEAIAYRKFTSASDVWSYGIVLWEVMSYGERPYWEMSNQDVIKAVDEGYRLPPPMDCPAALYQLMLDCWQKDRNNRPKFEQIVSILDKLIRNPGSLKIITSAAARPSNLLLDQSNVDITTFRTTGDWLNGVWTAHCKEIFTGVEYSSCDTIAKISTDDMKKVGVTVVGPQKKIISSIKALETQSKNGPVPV
# Ribosomal protein S6 kinase alpha-2 (Homo sapiens), sequence (Q15349 whole entry): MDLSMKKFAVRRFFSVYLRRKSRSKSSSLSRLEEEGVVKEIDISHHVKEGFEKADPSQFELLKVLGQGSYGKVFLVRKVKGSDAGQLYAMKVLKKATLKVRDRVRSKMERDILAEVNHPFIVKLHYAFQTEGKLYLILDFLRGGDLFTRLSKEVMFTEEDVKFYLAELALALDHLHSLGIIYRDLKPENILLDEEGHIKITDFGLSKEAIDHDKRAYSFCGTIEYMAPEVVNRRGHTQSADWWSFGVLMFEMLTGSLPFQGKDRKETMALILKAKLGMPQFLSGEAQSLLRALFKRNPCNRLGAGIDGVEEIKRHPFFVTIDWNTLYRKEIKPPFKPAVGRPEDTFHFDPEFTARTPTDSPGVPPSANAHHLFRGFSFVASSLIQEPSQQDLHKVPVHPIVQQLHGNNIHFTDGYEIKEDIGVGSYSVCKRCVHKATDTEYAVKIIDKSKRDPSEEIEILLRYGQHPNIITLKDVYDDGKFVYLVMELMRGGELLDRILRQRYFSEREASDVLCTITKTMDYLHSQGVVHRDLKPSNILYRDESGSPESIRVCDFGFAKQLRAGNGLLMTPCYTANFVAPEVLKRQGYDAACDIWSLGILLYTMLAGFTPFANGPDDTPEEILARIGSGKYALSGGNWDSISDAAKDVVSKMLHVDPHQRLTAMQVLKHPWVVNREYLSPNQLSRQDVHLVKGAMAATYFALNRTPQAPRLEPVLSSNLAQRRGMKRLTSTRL
# Serine/threonine-protein kinase DCLK1 (Homo sapiens), sequence (O15075 whole entry): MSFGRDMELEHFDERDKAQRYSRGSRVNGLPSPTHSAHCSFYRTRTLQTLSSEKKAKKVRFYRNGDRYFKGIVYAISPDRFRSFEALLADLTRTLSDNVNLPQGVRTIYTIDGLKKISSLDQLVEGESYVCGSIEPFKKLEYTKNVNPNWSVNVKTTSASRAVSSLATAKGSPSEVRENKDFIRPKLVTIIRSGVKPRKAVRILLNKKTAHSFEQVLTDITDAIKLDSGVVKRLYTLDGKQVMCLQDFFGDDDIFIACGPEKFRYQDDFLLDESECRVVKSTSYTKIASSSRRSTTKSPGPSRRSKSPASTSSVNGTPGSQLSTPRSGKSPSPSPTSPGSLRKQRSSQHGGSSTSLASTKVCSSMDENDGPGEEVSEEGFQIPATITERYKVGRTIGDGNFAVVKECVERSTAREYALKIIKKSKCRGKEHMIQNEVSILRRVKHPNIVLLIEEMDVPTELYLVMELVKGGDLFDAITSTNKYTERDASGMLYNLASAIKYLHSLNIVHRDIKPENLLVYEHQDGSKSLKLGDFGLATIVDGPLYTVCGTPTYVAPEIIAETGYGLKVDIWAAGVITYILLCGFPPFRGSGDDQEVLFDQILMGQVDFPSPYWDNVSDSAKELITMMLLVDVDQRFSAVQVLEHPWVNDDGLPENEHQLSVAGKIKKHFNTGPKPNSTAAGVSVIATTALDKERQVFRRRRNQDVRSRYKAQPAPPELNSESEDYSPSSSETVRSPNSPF
# Ribosomal protein S6 kinase alpha-6 (Homo sapiens), sequence (Q9UK32 whole entry): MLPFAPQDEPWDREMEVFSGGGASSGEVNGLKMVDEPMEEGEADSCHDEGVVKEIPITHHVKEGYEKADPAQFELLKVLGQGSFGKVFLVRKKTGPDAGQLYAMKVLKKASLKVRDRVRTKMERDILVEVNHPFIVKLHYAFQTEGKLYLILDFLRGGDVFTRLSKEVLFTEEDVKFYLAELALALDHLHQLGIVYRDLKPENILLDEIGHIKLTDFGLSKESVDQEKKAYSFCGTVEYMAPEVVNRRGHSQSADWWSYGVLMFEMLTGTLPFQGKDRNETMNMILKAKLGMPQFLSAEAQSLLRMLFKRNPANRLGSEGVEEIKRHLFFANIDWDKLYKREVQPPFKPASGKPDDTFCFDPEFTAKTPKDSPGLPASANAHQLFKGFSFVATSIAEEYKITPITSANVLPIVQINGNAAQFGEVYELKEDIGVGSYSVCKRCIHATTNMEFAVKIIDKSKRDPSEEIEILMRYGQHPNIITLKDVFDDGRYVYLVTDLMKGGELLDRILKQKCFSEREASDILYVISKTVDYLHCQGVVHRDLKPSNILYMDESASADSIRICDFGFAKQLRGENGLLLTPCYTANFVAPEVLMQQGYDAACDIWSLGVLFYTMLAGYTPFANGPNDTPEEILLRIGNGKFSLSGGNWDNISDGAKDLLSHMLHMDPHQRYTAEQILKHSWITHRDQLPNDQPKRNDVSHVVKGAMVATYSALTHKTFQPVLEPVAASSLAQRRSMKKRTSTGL
compound,measurement,setting,value
CNC(=O)c1ccc(Nc2ncc(C(F)(F)F)c(NCc3nccnc3N(C)S(C)(=O)=O)n2)cc1 [DEFACTINIB],residual activity,[1]; [39],48%
same,residual activity,[2]; [39],76%
same,inhibition,[3],4.73%
same,residual activity,[4]; [39],61%
same,residual activity,[5]; [39],97%
same,residual activity,[6]; [39],28%
same,residual activity,[7]; [39],56%
same,residual activity,[8]; [39],82%
same,residual activity,[9]; [39],74%
same,residual activity,[10]; [39],100%
same,inhibition,[11],-0.83%
same,residual activity,[12]; [39],9%
same,residual activity,[13]; [39],77%
same,residual activity,[14]; [39],83%
same,residual activity,[15]; [39],97%
same,residual activity,[16]; [39],100%
same,residual activity,[17]; [39],100%
same,residual activity,[18]; [39],100%
same,residual activity,[19]; [39],85%
same,residual activity,[20]; [39],100%
same,residual activity,[21]; [39],97%
same,residual activity,[22]; [39],83%
same,residual activity,[23]; [39],68%
same,residual activity,[24]; [39],100%
same,residual activity,[25]; [39],49%
same,residual activity,[26]; [39],92%
same,residual activity,[27]; [39],86%
same,residual activity,[28]; [39],79%
same,residual activity,[29]; [39],23%
same,residual activity,[30]; [39],100%
same,residual activity,[31]; [39],7.7%
same,residual activity,[32]; [39],1.7%
same,inhibition,[33],-7.85%
same,residual activity,[34]; [39],77%
same,residual activity,[35]; [39],79%
same,residual activity,[36]; [39],99%
same,residual activity,[37]; [39],45%
same,residual activity,[38]; [39],28%
CN(c1ccnc(CNc2nc(Nc3ccc4c(c3)CC(=O)N4)ncc2C(F)(F)F)n1)S(C)(=O)=O [PF-00911705],residual activity,[1]; [40],58%
same,residual activity,[2]; [40],100%
same,inhibition,[3],4.91%
same,residual activity,[4]; [40],26%
same,residual activity,[5]; [40],75%
same,residual activity,[6]; [40],94%
same,residual activity,[7]; [40],66%
same,residual activity,[8]; [40],72%
same,residual activity,[9]; [40],77%
same,residual activity,[10]; [40],76%
same,inhibition,[11],16.4%
same,residual activity,[12]; [40],0%
same,residual activity,[13]; [40],100%
same,residual activity,[14]; [40],78%
same,residual activity,[15]; [40],89%
same,residual activity,[16]; [40],60%
same,residual activity,[17]; [40],100%
same,residual activity,[18]; [40],68%
same,residual activity,[19]; [40],46%
same,residual activity,[20]; [40],52%
same,residual activity,[21]; [40],29%
same,residual activity,[22]; [40],45%
same,residual activity,[23]; [40],49%
same,residual activity,[24]; [40],98%
same,residual activity,[25]; [40],79%
same,residual activity,[26]; [40],75%
same,residual activity,[27]; [40],100%
same,residual activity,[28]; [40],50%
same,residual activity,[29]; [40],4.4%
same,residual activity,[30]; [40],92%
same,residual activity,[31]; [40],1.5%
same,residual activity,[32]; [40],0.4%
same,inhibition,[33],29.5%
same,residual activity,[34]; [40],57%
same,residual activity,[35]; [40],31%
same,residual activity,[36]; [40],57%
same,residual activity,[37]; [40],11%
same,residual activity,[38]; [40],6.7%

# Source: ChEMBL document CHEMBL4507299, “Data for DCP probe PF-04554878” (2021)
